Here are results for ten compounds from patent US11498928B2, “Macrocyclic spiroethers as Mcl-1 inhibitors” (ASCENTAGE PHARMA (SUZHOU) CO., LTD., priority 2019, dated 2022).

For series [1], the system named is OPM-2 cells. As to the kind of experiment: Cell viability assay (OPM-2 cells), CCK-8. The note with it: 5% FBS. In kind it is cell-based. As for the experimental part: OPM-2 cells were obtained from Deutsche Sammlung von Mikroorganismen and Zellkulturen GmbH (DSMZ). Cells were maintained in the recommended culture medium with 10% FBS at 37° C. and an atmosphere of 5% CO2.
The effect of representative Compounds of the Disclosure on cell viability was determined using Cell Counting Kit-8 (CCK-8) assay (Shanghai Life iLab Bio Technology) according to the manufacturer's instructions. Each tested compound was serially diluted in culture medium, 100 μL of the compound dilution was added into 96-well plates. 100 μL of an OPM-2 cell suspension (20000 cells/well) in culture medium were seeded into the corresponding well of the plate and the cells were incubated at 37° C. in an atmosphere of 5% CO2 for 24 hours. In the next day, 20 μL of CCK-8 solution was added to each well of the plate and incubated for 4 hours.
The plates were read at 450 nm on the microplate spectrophotometer (SpectraMax plus 384, Molecular devices). The readings were normalized to the vehicle cells, and the IC50 was calculated by nonlinear regression analysis using GraphPad Prism 6 software.

For series [2], the target named is T1, Mcl-1 protein (residues 171-323) (Homo sapiens, UniProt Q07820).
T1 construct: Tag-free Mcl-1 protein (residues 171-323) was used in the FP assay
As to the kind of experiment: Inhibition of Mcl-1 by fluorescence polarization (FP) competitive binding assay with FAM-Bid tracer. Conditions: 2 nM FAM-Bid, 20 nM Mcl-1, 30 min. The protocol:
Inhibition of Mcl-1 by Fluorescence Polarization (FP) Assay.
The relative binding potency of representative Compounds of the Disclosure was determined by a fluorescence polarization (FP) assay (Long et al, BMC Biotechnology 13:45 (2013)). The method used a fluorescein labelled peptide (FAM-Bid) which binds to the Mcl-1 protein leading to an increased anisotropy measured in milli-polarization (mP) values using a plate reader. […] Tag-free Mcl-1 protein (residues 171-323) was used in the FP assay (Mady et al, Scientific Reports 8: 10210-10210 (2018); Yang et al, ACS Med. Chem. Lett. 3:308-312 (2012)).
A 10-points serial dilution of each compound was prepared in DMSO and 5 μL solution was transferred into flat bottomed, 96-well back plate (final DMSO concentration 5%). 120 μL of Buffer (PBS, 0.01% BGG (Sigma Cat. #SRE0011), 0.01% Triton X-100), containing the Fluorescein labelled peptide (Final concentration 2 nM) and Mcl-1 protein (final concentration 20 nM) was then added. Assay plates were incubated 30 mins at room temperature with gentle shaking before FP was measured on a Biotek Synergy 1MF reader (Ex. 485 nm, Em. 528 nm, Cut off 510 nm) and mP calculated. The binding of increasing doses of test compounds was expressed as a percentage reduction in mP compared to a window established between 5% DMSO only and 100% inhibition controls (no Mcl-1 protein). 10-points dose response curves were plotted with GraphPad software using Sigmoidal Dose-Response Model and the IC50 values were determined by nonlinear regression fitting of the competition curves. Cell Viability Assay (NCI-H929 cells)

For series [3], the system named is NCI-H929 cells. As to the kind of experiment: Cell viability assay (NCI-H929 cells), CCK-8. The series is classed as cell-based. The note with it: 5% FBS. The protocol: NCI-H929 cells were obtained from American Type Culture Collection (ATCC). Cells were maintained in the recommended culture medium (RPMI 1640) with 10% FBS and 0.05 mM BME at 37° C. and an atmosphere of 5% CO2.
The effect of Compounds on cell viability was determined using Cell Counting Kit-8 (CCK-8) assay according to the manufacturer's instructions. 95 μL of NCI-H929 cell suspension (20000 cells/well) in culture medium were seeded into 96-well plates and cultured 4 hrs. Each tested compound was serially diluted in DMSO, then 5 μL of the compound or DMSO was diluted in 95 μL medium once more. At last, 5 μL of the compound dilution was added to the corresponding well of the cell plate. After the addition of the tested compound, the cells were incubated at 37° C. in an atmosphere of 5% CO2 for 24 hrs. At the end, 10 μL of CCK-8 solution was added to each well of the plate and incubated for 1-4 hours. The plates were read at 450 nm on the microplate reader (BioTek Synergy 1MF). The readings were normalized to the vehicle cells, and the IC50 was calculated by nonlinear regression analysis using GraphPad Prism 6 software. Cell Viability Assay (OPM-2 cells)

The nature of series [4]: Pharmacokinetic studies in mice (IV and PO). Conditions: for MRT last: read-out: MRT0-last. The series is classed as in vivo. The protocol: Administration: Mice in the IV group was dosed at 2 mg/kg (20% PEG 400+10% Cremophor EL+70% PBS 7.4) via tail vein injection (N=9). Mice in the PO group was dosed at 10 mg/kg (20% PEG 400+10% Cremophor EL+70% PBS 7.4) via oral gavage (N=9). All the mice were fasted overnight before dosing and had free access to food 4 hr post dosing.
Sampling: The animal was restrained manually at the designated time points (0.083, 0.25, 0.5, 1, 2, 4, 6, 8 and 24 hr), approximately 110 μL of blood sample was collected via retro-orbital puncture or cardiac puncture for terminal bleeding under the anesthesia with Isoflurane inhalation into K2EDTA tubes. The blood samples were maintained in wet ice first and centrifuged to obtain plasma (2000 g, 4° C., 5 min) within 15 minutes post sampling. All the plasma samples were stored at approximately −70° C. until analysis.

Read-outs that look alike come from different tables or passages of the source.

T1 sequence (Q07820 171-323): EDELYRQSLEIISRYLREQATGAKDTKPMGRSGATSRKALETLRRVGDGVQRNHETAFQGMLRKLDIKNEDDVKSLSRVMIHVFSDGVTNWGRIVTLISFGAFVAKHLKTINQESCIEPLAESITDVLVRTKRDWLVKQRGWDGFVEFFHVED

Consider `CO[C@@H]1C2=CC(CCS(=O)(=O)NC(=O)c3ccc4c(c3)N(C[C@@H]3CC[C@H]31)C[C@@]1(CCCc3cc(Cl)ccc31)CO4)C2` (single isomer, unassigned) [Cpd. No. 4 (Isomer 2)], for which the IC50 was 2120 nM in series [1] (24 h), 12 nM in series [2] and 1600 nM in series [3] (24 h).

`C[C@@H]1[C@@H](C)S(=O)(=O)NC(=O)c2ccc3c(c2)N(C[C@@H]2CC[C@H]2[C@@H](OCCN2CCOCC2)C2=C[C@H]1C2)C[C@@]1(CCCc2c1ccc(Cl)c2F)CO3` [compound 59, (1S,11′R,12′S,13′R,16′R,16a′R,18a′R,E)-6-chloro-5-fluoro-11′,12′-dimethyl-16′-(2-morpholinoethoxy)-3,4,12′,13′,16′,16a′,17′,18′,18a′,19′-decahydro-1′H,2H,3′H,11′H-spiro[naphthalene-1,2′-[5,7]etheno[13,15]methanocyclobuta[i][1,4]oxazepino[3,4-f][1]thia[2,7]diazacyclohexadecin]-8′(9′H)-one 10′,10′-dioxide]: the IC50 in series [1] (Homo sapiens, OPM-2, 24 h) stood at 37 nM; in series [2], 13 nM; in series [3] (Homo sapiens, NCI-H929, 24 h), 4.1 nM.

With `CO[C@@]1(CN2CCN(C3COC3)CC2)C2=C[C@@H](C2)[C@H](C)[C@@H](C)S(=O)(=O)NC(=O)c2ccc3c(c2)N(C[C@@H]2CC[C@H]21)C[C@@]1(CCCc2c1ccc(Cl)c2F)CO3` [compound 50], the half-maximal inhibitory concentration (IC50) was determined as 28 nM in series [1] (Homo sapiens, OPM-2, 24 h); 11 nM in series [2]; 11 nM in series [3] (Homo sapiens, NCI-H929, 24 h).

For `CO[C@@]1(CN(C)C(C)=O)C2=C[C@@H](C2)[C@H](C)[C@@H](C)S(=O)(=O)NC(=O)c2ccc3c(c2)N(C[C@@H]2CC[C@H]21)C[C@@]1(CCCc2c1ccc(Cl)c2F)CO3` [compound 53, N-(((1S,11′R,12′S,13′R,16′R,16a′R,18a′R,E)-6-chloro-5-fluoro-16′-methoxy-11′,12′-dimethyl-10′,10′-dioxido-8′-oxo-3,4,8′,9′,12′,13′,16′,16a′,17′,18′,18a′,19′-dodecahydro-1′H,2H,3′H,11′H-spiro[naphthalene-1,2′-[5,7]etheno[13,15]methanocyclobuta[i][1,4]oxazepino[3,4-f][1]thia[2,7]diazacyclohexadecin]-16′-yl)methyl)-N-methylacetamide], the IC50 is 57 nM in series [1] (Homo sapiens, OPM-2, 24 h); 5.7 nM in series [2]; 49 nM in series [3] (Homo sapiens, NCI-H929, 24 h).

For the compound `CC[C@@H]1CS(=O)(=O)NC(=O)c2ccc3c(c2)N(C[C@@H]2CC[C@H]2[C@@H](OC)C2=CC1C2)C[C@@]1(CCCc2cc(Cl)ccc21)CO3` (single isomer, unassigned) [Cpd. No. 10 (Isomer 2)], the values for the IC50 in series [1] (24 h), in series [2] and in series [3] (24 h) were 1130 nM, 4.9 nM and 780 nM, respectively.

Turning to `CNC[C@]1(OC)C2=C[C@@H](C2)[C@H](C)[C@@H](C)S(=O)(=O)NC(=O)c2ccc3c(c2)N(C[C@@H]2CC[C@H]21)C[C@@]1(CCCc2c1ccc(Cl)c2F)CO3` [compound 52, (1S,11′R,12′S,13′R,16′R,16a′R,18a′R,E)-6-chloro-5-fluoro-16′-methoxy-11′,12′-dimethyl-16′-((methylamino)methyl)-3,4,12′,13′,16′,16a′,17′,18′,18a′,19′-decahydro-1′H,2H,3′H,11′H-spiro[naphthalene-1,2′-[5,7]etheno[13,15]methanocyclobuta[i][1,4]oxazepino[3,4-f][1]thia[2,7]diazacyclohexadecin]-8′(9′H)-one 10′,10′-dioxide], the IC50 in series [1] (Homo sapiens, OPM-2, 24 h) stood at 23 nM; in series [2], 7 nM; in series [3] (Homo sapiens, NCI-H929, 24 h), 19 nM.

Take `CO[C@@]1(CN2CCNC(=O)C2)C2=C[C@@H](C2)[C@H](C)[C@@H](C)S(=O)(=O)NC(=O)c2ccc3c(c2)N(C[C@@H]2CC[C@H]21)C[C@@]1(CCCc2c1ccc(Cl)c2F)CO3` [compound 42, (1S,11′R,12′S,13′R,16′R,16a′R,18a′R,E)-6-chloro-5-fluoro-16′-methoxy-11′,12′-dimethyl-16′-((3-oxopiperazin-1-yl)methyl)-3,4,12′,13′,16′,16a′,17′,18′,18a′,19′-decahydro-1′H,2H,3′H, 11′H-spiro[naphthalene-1,2′-[5,7]etheno[13,15]methanocyclobuta[i][1,4]oxazepino[3,4-f][1]thia[2,7]diazacyclohexadecin]-8′(9′H)-one 10′,10′-dioxide]: the IC50 in series [1] (Homo sapiens, OPM-2, 24 h) was 66 nM; in series [2], 13 nM; in series [3] (Homo sapiens, NCI-H929, 24 h), 51 nM.

For the compound `CO[C@@H]1C2=CC(C2)C(C)(C)CS(=O)(=O)NC(=O)c2ccc3c(c2)N(C[C@@H]2CC[C@H]21)C[C@@]1(CCCc2cc(Cl)ccc21)CO3` (single isomer, unassigned) [Cpd. No. 6 (Isomer 2)], the results for the IC50 in series [1] (24 h), in series [2] and in series [3] (24 h) were 2870 nM, 6.3 nM and 3400 nM, respectively.

For `CO[C@H]1/C=C/C[C@H](C)[C@@H](C)S(=O)(=O)NC(=O)c2ccc3c(c2)N(C[C@@H]2CC[C@H]21)C[C@@]1(CCCc2cc(Cl)ccc21)CO3` [AMG-176, reference compound], in series [4] (PO 10 mg/kg vs IV 2 mg/kg), the F was 97.9%. Further, in series [4] (mouse, plasma, IV 2 mg/kg), the AUC(0-inf) worked out at 7450 ng·h/mL, the AUC(0-t) was 6800 ng·h/mL, the clearance was 4.5 mL/min/kg and the half-life was 7.2 h. The MRT last in series [4] (mouse, plasma, IV 2 mg/kg) was found to be 6.3 h. Besides, the Cmax in series [4] (mouse, plasma, IV 2 mg/kg, read-out: C0/Cmax (C0)) was found to be 1550 ng/mL. In addition, the Vd in series [4] (mouse, plasma, IV 2 mg/kg, read-out: Vss) is 2.3 L/kg. Also, in series [4] (mouse, plasma, PO 10 mg/kg), the AUC(0-inf) amounted to 36500 ng·h/mL, the AUC(0-t) came to 32700 ng·h/mL, the Tmax came out at 1 h and the half-life is 7.4 h. In addition, in series [4] (mouse, plasma, PO 10 mg/kg), the MRT last is 7.4 h. In series [4] (mouse, plasma, PO 10 mg/kg, read-out: C0/Cmax (Cmax)), the Cmax was found to be 2500 ng/mL. Besides, the Vd/F in series [4] (mouse, plasma, PO 10 mg/kg, read-out: Vz/F) is 2.9 L/kg. In series [1] (Homo sapiens, OPM-2, 24 h), this compound showed an IC50 of 335 nM. For the same compound, in series [3] (Homo sapiens, NCI-H929, 24 h), the IC50 turned out to be 138 nM.

Consider `CO[C@H]1C2CC(CCS(=O)(=O)NC(=O)c3ccc4c(c3)N(C[C@@H]3CC[C@H]31)C[C@@]1(CCCc3cc(Cl)ccc31)CO4)C2` [compound 2], for which the IC50 in series [1] (Homo sapiens, OPM-2, 24 h) was determined as 10 nM; in series [3] (Homo sapiens, NCI-H929, 24 h), 6.04 nM.

What is called IC50 is the concentration at which inhibition is half-maximal. By AUC(0-inf) is commonly meant the area under the concentration-time curve extrapolated to infinity. A lower AUC(0-inf) goes with low exposure. The AUC(0-t) is exposure summed from dosing to a finite time, without extrapolation to infinity. One may read the half-life as how long it takes for the measured level to halve. Higher therefore signals slow loss. Broadly, the Tmax is the time at which the peak concentration occurs.
